Source: US20210060550A1, “DEVICES AND METHODS FOR DETECTION OF MICROORGANISMS” (MICROBIOSENSOR LIMITED, priority 2017, published 2021)

Legend:
P. aeruginosa = assay: Test A: antibiotic sensitivity in contaminated urine, tetrazolium violet colour change; assay type: cell-based; conditions: urine with 10^5 cfu/mL P. aeruginosa, 37° C. 10 hours; μg/ml: nitrofurantoin 64, pivmecillinam 4, trimethoprim 1, cephalexin 16, ciprofloxacin 0.25
K. pneumoniae = assay: Test D: antibiotic sensitivity in contaminated urine, tetrazolium violet colour change; assay type: cell-based; conditions: urine with 10^5 cfu/mL K. pneumoniae, 37° C. 10 hours; μg/ml: nitrofurantoin 64, pivmecillinam 4, trimethoprim 8, cephalexin 32, ciprofloxacin 0.25
Experimental: Each test tube contained 0.04 mg tetrazolium violet, 6.6 mg Wilkins Chalgren media. The test chambers also contained an amount of antibiotic compound as indicated in the tables below (as concentration in final volume of urine).
For each example, 0.2 mL of a urine sample was contaminated with 10^5 cfu/mL of the specified bacteria was poured into each test tube. The resultant composition was incubated at 37° C. for 10 hours. FIGS. 3A to 3F show the test tubes after the incubation period.

O=C(O)c1cn(C2CC2)c2cc(N3CCNCC3)c(F)cc2c1=O [ciprofloxacin]
infection treatable or resistant (FIG. 4A) (P. aeruginosa): can be treated
infection treatable or resistant (FIG. 4D) (K. pneumoniae): can be treated

COc1cc(Cc2cnc(N)nc2N)cc(OC)c1OC [trimethoprim]
infection treatable or resistant (FIG. 4D) (K. pneumoniae): can be treated
